Results from US20250387361A1, “METHODS OF ADMINISTERING GAMMA-HYDROXYBUTYRATE COMPOSITIONS WITH DIVALPROEX SODIUM” (Flamel Ireland Limited, priority 2020, published 2025).
Like-named read-outs stand apart in the source and are kept apart here.

Legend:
[1] = cited from earlier work
plasma proteins = conditions: GHB concentrations 3 mcg/mL to 300 mcg/mL; cited from earlier work
[2] = cited from earlier work; remark: listed apart in the source
[3] = in vivo
Description: (§1) The study included a sequential, three period design with a single-dose administration of 6 g FT218 on Day 1 (Period 1), once daily 1250 mg divalproex sodium ER administration from Day 2-11 (Period 2), and FT218 and divalproex sodium ER co-administration on Day 12 (Period 3). All administrations were performed in the evening, 2 hours after the completion of dinner.
(§2) To compare the effect of FT218 on DVP, the concentration versus time curves for a 1250 mg dose of DVP administered alone (Day 11) and co-administered with FT218 (Day 12) were plotted together.

[4] = in vivo; remark: listed apart in the source
Description: as §1, with “morning,” for “evening,”, “a morning meal.” for “dinner.”
as §2

mouse = conditions: 2-year study; cited from earlier work
rat [5] = conditions: 2-year study; cited from earlier work
patients = conditions: cited from earlier work; for incidence of depression: controlled trial titrated from 4.5 g, placebo 1.7%
[6] = cited from earlier work; remark: listed apart in the source
[7] = cited from earlier work; for apparent oral clearance: 25 mg/kg oral
CYP1A2 = target: T1, CYP1A2 (Homo sapiens, UniProt P05177); conditions: up to 3 mM (378 mcg/mL); cited from earlier work
T1 sequence (P05177 1-516): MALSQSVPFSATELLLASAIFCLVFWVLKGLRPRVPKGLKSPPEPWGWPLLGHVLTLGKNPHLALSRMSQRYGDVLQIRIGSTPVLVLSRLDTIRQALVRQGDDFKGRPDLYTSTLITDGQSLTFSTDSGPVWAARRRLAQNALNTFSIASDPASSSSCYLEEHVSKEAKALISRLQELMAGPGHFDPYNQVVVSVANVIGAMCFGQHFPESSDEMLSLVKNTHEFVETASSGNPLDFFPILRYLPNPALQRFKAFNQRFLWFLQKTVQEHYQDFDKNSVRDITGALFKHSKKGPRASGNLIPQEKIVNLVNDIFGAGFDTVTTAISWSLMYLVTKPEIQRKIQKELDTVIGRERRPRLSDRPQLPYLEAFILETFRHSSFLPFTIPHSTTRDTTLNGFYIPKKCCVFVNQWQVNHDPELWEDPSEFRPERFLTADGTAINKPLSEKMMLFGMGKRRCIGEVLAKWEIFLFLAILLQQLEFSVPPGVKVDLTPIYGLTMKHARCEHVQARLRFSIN

CYP2C9 = CYP2C9 (Homo sapiens, UniProt P11712); conditions: up to 3 mM (378 mcg/mL); cited from earlier work
Chain of CYP2C9 (P11712 whole entry): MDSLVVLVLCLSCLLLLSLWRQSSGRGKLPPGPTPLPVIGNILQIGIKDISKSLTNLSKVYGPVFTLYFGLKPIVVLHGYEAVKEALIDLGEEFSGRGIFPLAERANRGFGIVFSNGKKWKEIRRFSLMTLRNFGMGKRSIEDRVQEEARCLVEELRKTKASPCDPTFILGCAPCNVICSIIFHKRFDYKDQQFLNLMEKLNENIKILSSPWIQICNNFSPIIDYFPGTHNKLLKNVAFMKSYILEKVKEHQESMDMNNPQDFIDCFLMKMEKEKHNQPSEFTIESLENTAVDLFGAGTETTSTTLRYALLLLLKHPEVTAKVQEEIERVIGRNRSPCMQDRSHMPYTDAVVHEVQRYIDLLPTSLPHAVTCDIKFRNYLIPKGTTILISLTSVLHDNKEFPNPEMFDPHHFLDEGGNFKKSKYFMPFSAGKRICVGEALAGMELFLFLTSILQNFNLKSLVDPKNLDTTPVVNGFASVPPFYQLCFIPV

CYP2C19 = CYP2C19 (Homo sapiens, UniProt P33261); conditions: up to 3 mM (378 mcg/mL); cited from earlier work
Chain of CYP2C19 (P33261 whole entry): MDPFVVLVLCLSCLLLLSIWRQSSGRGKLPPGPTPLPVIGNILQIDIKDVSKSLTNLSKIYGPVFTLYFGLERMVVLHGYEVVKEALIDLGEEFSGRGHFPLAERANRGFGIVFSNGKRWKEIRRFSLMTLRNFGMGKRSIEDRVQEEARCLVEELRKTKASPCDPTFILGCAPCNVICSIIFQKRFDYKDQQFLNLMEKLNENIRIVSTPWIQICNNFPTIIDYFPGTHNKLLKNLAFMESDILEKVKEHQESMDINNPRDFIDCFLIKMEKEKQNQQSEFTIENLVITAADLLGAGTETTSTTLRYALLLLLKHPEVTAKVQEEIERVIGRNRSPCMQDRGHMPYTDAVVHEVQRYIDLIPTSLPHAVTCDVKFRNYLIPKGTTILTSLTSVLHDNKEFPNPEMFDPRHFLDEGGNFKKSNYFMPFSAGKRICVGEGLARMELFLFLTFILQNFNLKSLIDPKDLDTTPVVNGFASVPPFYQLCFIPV

CYP2D6 = CYP2D6 (Homo sapiens, UniProt P10635); conditions: up to 3 mM (378 mcg/mL); cited from earlier work
Chain of CYP2D6 (P10635 whole entry): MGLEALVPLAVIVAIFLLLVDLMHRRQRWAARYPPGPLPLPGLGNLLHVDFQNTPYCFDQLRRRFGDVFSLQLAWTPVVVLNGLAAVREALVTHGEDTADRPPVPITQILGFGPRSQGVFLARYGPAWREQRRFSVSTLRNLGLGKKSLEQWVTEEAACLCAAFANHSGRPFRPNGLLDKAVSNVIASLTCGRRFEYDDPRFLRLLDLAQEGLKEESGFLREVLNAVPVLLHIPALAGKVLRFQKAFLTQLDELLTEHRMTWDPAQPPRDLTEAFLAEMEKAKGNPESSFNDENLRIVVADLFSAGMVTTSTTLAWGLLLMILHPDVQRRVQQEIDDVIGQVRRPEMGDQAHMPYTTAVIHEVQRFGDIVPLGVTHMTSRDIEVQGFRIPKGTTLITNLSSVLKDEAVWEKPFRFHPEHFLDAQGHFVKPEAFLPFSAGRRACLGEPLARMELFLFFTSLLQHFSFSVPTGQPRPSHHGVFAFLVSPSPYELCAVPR

CYP2E1 = CYP2E1 (Homo sapiens, UniProt P05181); conditions: up to 3 mM (378 mcg/mL); cited from earlier work
Chain of CYP2E1 (P05181 whole entry): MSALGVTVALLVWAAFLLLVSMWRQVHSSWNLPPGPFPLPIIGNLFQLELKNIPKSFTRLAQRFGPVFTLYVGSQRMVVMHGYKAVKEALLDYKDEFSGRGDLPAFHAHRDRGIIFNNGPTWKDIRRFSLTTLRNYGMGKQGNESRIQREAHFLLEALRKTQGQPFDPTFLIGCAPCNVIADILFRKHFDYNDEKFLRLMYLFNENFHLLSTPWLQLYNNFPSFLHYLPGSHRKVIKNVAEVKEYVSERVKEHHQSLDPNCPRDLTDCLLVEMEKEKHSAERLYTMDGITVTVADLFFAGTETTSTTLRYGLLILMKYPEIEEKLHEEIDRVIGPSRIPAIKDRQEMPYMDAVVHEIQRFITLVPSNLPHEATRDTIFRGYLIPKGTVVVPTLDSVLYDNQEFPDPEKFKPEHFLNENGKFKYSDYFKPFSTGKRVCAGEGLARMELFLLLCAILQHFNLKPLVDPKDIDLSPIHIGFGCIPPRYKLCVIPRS

CYP3A = conditions: up to 3 mM (378 mcg/mL); cited from earlier work
rats [8] = conditions: cited from earlier work
bacterial gene mutation = conditions: in vitro; cited from earlier work
mammalian cells = conditions: in vitro; cited from earlier work
rat [9] = conditions: in vivo; cited from earlier work
male and female rats = conditions: cited from earlier work
pregnant rats = conditions: cited from earlier work
pregnant rabbits = conditions: cited from earlier work
rats [10] = conditions: cited from earlier work; remark: listed apart in the source
rats [11] = conditions: cited from earlier work; remark: listed apart in the source
[12] = 9 g per night, 50 patients with obstructive sleep apnea
[13] = elderly (65 years or older), another population
[14] = of 781 patients with narcolepsy
[15] = younger adults, another population
[16] = 6 g per day as two 3 g doses, ibuprofen 800 mg/dose four times per day

In the case of `O=C(O)CCCO` [GHB, gamma-hydroxybutyrate], the “excretion in human milk” value ([1]; after oral administration of sodium oxybate) is given as “excreted in human milk”, the “apparent volume of distribution” value ([1]; in vivo) is given as 0.19 to 0.384 L/kg and the elimination half-life ([1]; in vivo) is given as 30 to 60 min. The fecal excretion ([1]; in vivo) was “negligible”, the placental transfer ([1]; intravenous administration to mothers) was “rapid” and the “unchanged drug in human urine” value ([1]; within 6 to 8 hours after dosing) was “less than 5%”. For the same molecule, the “bound to plasma proteins” value (plasma proteins) was “less than 1%” and the “change in pharmacokinetics of GHB on alteration of gastric pH with omeprazole” value ([2]; in vivo) was “no significant change”.
With `CCCC(CCC)C(=O)O` [divalproex sodium ER, divalproex sodium] the “decrease of valproic acid Cmax with FT218” value ([3]; human) was “approximately 5%”, the “valproic acid AUC0-24 T/R ratio [90% CI], Day 12 (with FT218) vs Day 11 (without)” value ([3]; human) was 97.28 [94.59-100.04] and the “valproic acid Cmax T/R ratio [90% CI], Day 12 (with FT218) vs Day 11 (without)” value ([3]; human) was 94.82 [91.03-98.76]. The “90% CIs of ratio of Cmax and AUC0-24 of valproic acid vs bioequivalence range (80.00%-125.00%)” value [3] was “contained within the standard bioequivalence range”, the “tmax for valproic acid, with vs without FT218” value [3] was “comparable” and the “90% CIs of ratio of Cmax and AUC0-24 of valproic acid vs bioequivalence range (80.00%-125.00%)” value [4] was “contained within the standard bioequivalence range”.
For `O=C1CCCO1` [gamma-butyrolactone], the carcinogenic activity (mouse) is listed as “no clear evidence of carcinogenic activity” and the carcinogenic activity (rat [5]) is listed as “no clear evidence of carcinogenic activity”.
In the case of `O=C([O-])CCCO.[Na+]` [immediate-release sodium oxybate, sodium 4-hydroxybutyrate], the incidence of depression (patients; 4.5 g per night) is given as 1.5%, the incidence of depression (patients; 6 g per night) is given as 3.2% and the “patients with clinically significant oxygen desaturation (≤55%)” value (patients; 9 g per night, 50 patients with obstructive sleep apnea (three patients)) is given as 6%. For the same molecule, the “number of central apneas” value (patients; [12]) was “significant increase”, the “severity of sleep-disordered breathing” value (patients; [12]) was “did not increase the severity of sleep-disordered breathing” and the patients experiencing confusion (patients; 9 g per night, controlled fixed-dose trial) was 17%. The incidence of depression (patients; 9 g per night) was 3.6%, the “clinically significant worsening of respiratory function” value (patients; 40 patients with baseline apnea/hypopnea index 16 to 67 events per hour, 4.5 g to 9 g per night) was “None of the 40 patients” and the “profound CNS depression” value (patients; 128 patients with narcolepsy) was “two subjects had profound CNS depression”. For the same molecule, the “CNS depression at recommended doses” value (patients; adult patients, clinical trials) was “obtundation and clinically significant respiratory depression occurred”, the “sleepwalking with potential injury or significant injury” value (patients; clinical trial in patients with narcolepsy) was “Five instances” and the events of depression (patients; controlled trial, fixed doses 3 g, 6 g or 9 g per night, at the 3 g per night dose) was “a single event of depression”. The “dose-related changes in oxygen saturation” value (patients; doses up to 9 g per night, 21 patients with narcolepsy) was “no dose-related changes in oxygen saturation”, the “discontinuations of treatment due to adverse reactions” value (patients; [13]) was 21% and the frequency of headaches (patients; [13]) was 39%. For the same molecule, the “patients discontinuing because of depression” value (patients; four of 781 patients) was less than 1%, the “patients discontinuing due to sleepwalking” value (patients; human, in vivo) was less than 1% and the “patients who discontinued because of confusion” value (patients; human, in vivo) was “Less than 1%”. The “patients reporting adverse reactions of depression” value (patients; [14]) was 7%, the “patients who experienced confusion” value (patients; [14]) was 3% and the patients reporting sleepwalking (patients; of 781 patients with narcolepsy, controlled and long-term open-label studies) was 6%. For the same molecule, the “patients in whom anxiety occurred” value (patients; of 874 patients, another population) was 5.8%, the “suicides and attempted suicides” value (patients; patients with narcolepsy (n=781)) was “two suicides and two attempted suicides” and the “significant worsening of apnea/hypopnea index” value (patients; patients with preexisting moderate-to-severe sleep apnea) was “One of four patients”. For the same molecule, the events of confusion (patients; trial titrated from 4.5 g per night, at the 9 g per night dose) was “a single event of confusion”, the “discontinuations of treatment due to adverse reactions” value (patients; [15]) was 19% and the frequency of headaches (patients; [15]) was 19%. For the same molecule, the “systemic exposure to GHB on co-administration with diclofenac” value ([2]; 6 g per day as two 3 g doses four hours apart, diclofenac 50 mg/dose twice per day) was “no significant changes”, the “effect of co-administration on pharmacokinetics of diclofenac” value ([2]; 6 g per day as two 3 g doses, diclofenac 50 mg/dose twice per day) was “did not appear to affect” and the “effect of co-administration on pharmacokinetics of ibuprofen” value [2, 16] was “did not affect”. The “systemic exposure to GHB (plasma Cmax and AUC) on co-administration with ibuprofen” value [2, 16] was “comparable systemic exposure”, the “pharmacokinetic interactions with protriptyline hydrochloride, zolpidem tartrate, and modafinil” value ([2]; healthy adults) was “no pharmacokinetic interactions” and the “pharmacokinetic or pharmacodynamic interactions with duloxetine HCl” value ([2]; healthy adults) was “no pharmacokinetic or clinically significant pharmacodynamic interactions”. The “pharmacokinetic interactions with the alcohol dehydrogenase inhibitor fomepizole” value ([2]; in vivo) was “no pharmacokinetic interactions” and the “pharmacokinetic characteristics of GHB in younger (48 to 64 years) vs older (65 to 75 years) adults” value ([6]; n=20, another studied population) was “consistent”.
In the case of `O=C([O-])CCCO.[Na+]` [sodium oxybate, sodium 4-hydroxybutyrate], the apparent oral clearance ([7]; Child's Class A cirrhotic patients) is given as 4.5 mL/min/kg, the apparent oral clearance ([7]; Child's Class C cirrhotic patients) is given as 4.1 mL/min/kg and the “mean t1/2” value ([7]; Class C patients) is given as 59 min. For the same molecule, the apparent oral clearance ([7]; healthy adults) was 9.1 mL/min/kg, the “AUC values in cirrhotic patients vs normal hepatic function” value ([7]; single oral dose of 25 mg/kg) was “doubled” and the “inhibition of CYP1A2 activity” value (CYP1A2) was “does not significantly inhibit”. The “inhibition of CYP2C9 activity” value (CYP2C9) was “does not significantly inhibit”, the “inhibition of CYP2C19 activity” value (CYP2C19) was “does not significantly inhibit” and the “inhibition of CYP2D6 activity” value (CYP2D6) was “does not significantly inhibit”. For the same molecule, the “inhibition of CYP2E1 activity” value (CYP2E1) was “does not significantly inhibit”, the “inhibition of CYP3A activity” value (CYP3A) was “does not significantly inhibit” and the “gender differences in pharmacokinetics of GHB” value ([6]; 18 female and 18 male healthy adults, 4.5 g oral dose) was “no gender differences were detected”. The “plasma exposure (AUC) at the highest dose tested relative to humans at MRHD of 9 g per night” value (rats [8]; 1,000 mg/kg/day) was 2 times, the tumors (rats [8]; oral doses up to 1,000 mg/kg/day for 83 (males) or 104 (females) weeks) was “no increase in tumors” and the bacterial gene mutation (bacterial gene mutation) was “negative”. The chromosomal aberration (mammalian cells) was “negative”, the micronucleus (rat [9]) was “negative” and the “highest dose tested relative to MRHD on a mg/m^2 basis” value (male and female rats; 1,000 mg/kg/day) was “approximately equal to the MRHD”. For the same molecule, the effects on fertility (male and female rats; oral 150, 350, or 1,000 mg/kg/day prior to and throughout mating, females through early gestation) was “no adverse effects on fertility”, the “highest dose tested relative to MRHD of 9 g per night (mg/m^2 basis)” value (pregnant rats; 1,000 mg/kg/day) was “approximately 1 times” and the developmental toxicity (pregnant rats; oral 150, 350, or 1,000 mg/kg/day throughout organogenesis) was “no clear evidence of developmental toxicity”. For the same molecule, the “highest dose tested relative to MRHD of 9 g per night (mg/m^2 basis)” value (pregnant rabbits; 1,200 mg/kg/day) was roughly 3 times, the developmental toxicity (pregnant rabbits; oral 300, 600, or 1,200 mg/kg/day throughout organogenesis) was “no clear evidence of developmental toxicity” and the “pre- and postnatal findings” value (rats [10]; oral 150, 350, or 1,000 mg/kg/day, at the highest dose tested) was “increased stillbirths and decreased offspring postnatal viability and body weight gain”. For the same molecule, the “no-effect dose for pre- and postnatal developmental toxicity relative to MRHD (mg/m^2 basis)” value (rats [10]; rat, in vivo) was “less than the MRHD”, the “growth and maturation findings” value (rats [11]; at the highest dose tested (900 mg/kg/day)) was “Reduced body weight gain in males and females and delayed sexual maturation in males” and the mortality (rats [11]; oral 0, 100, 300, or 900 mg/kg/day, postnatal days 21 through 90) was “mortality was observed at the two highest doses tested”.
